Measured values reported in patent US20260152487A1 (Sitryx Therapeutics Limited, priority 2021, published 2026).

Target: T1, recombinant human PKM2 (Homo sapiens, UniProt P14618)
T1 construct: His (N); purchased R&D Systems
Assay: Human PKM2 activation assay (Kinase-Glo Plus luminescent detection of generated ATP)
Format: biochemical
Conditions: for Emax: percentage activation normalised to DMSO vehicle (LOW) and 5 μM TEPP-46 (HIGH), read-out: hPKM2 Emax; for EC50: recombinant human PKM2 activation, 4-parameter logistic fit, read-out: hPKM2 EC50
Experimental: Compound activation of recombinant human PKM2 pyruvate kinase activity was determined by biochemical assay. N-terminal His-tagged hPKM2 was sourced from R&D Systems and its substrates phosphoenolpyruvate (PEP) and ADP from Sigma-Aldrich and 2Bscientific Ltd, respectively. The Kinase-Glo® Plus luminescence assay was from Promega. All other reagents were from Sigma-Aldrich. Test Compounds were prepared as 10 mM DMSO stocks and dilution series prepared in DMSO for direct dilution into Assay Buffer comprising 50 mM imidazole, 50 mM KCl, 7 mM MgCl2, 0.01% Tween20, 0.05% BSA (pH 7.2).
Human PKM2 was diluted into Assay Buffer comprising 50 mM imidazole, 50 mM KCl, 7 mM MgCl2, 0.01% Tween20, 0.05% BSA (pH 7.2) to a final concentration of […]. Enzyme-Assay Buffer mix was dispensed into a 384-well shallow-well white-walled plate (PerkinElmer) and Test Compounds added by acoustic dispense (Echo®, Labcyte Inc.).
After 60 minutes' incubation on an orbital shaker (300 rpm, 26° C.), enzyme activity was quantified by the luminescent detection of generated ATP. Kinase-Glo® Plus reagent was added to each well and the plates incubated for a further 15 minutes on an orbital shaker in the dark (300 rpm, 26° C.) before luminescence measurement on a plate reader (PHERAstar® FSX, BMG Labtech).
Percentage activation was calculated by normalising […] signals to plate LOW (DMSO vehicle) and HIGH (5 μM TEPP-46) controls. EC50 and Emax values were determined from 4-parameter logistic fits of compound concentration-response curves.

T1 sequence (P14618 2-531 limits assumed): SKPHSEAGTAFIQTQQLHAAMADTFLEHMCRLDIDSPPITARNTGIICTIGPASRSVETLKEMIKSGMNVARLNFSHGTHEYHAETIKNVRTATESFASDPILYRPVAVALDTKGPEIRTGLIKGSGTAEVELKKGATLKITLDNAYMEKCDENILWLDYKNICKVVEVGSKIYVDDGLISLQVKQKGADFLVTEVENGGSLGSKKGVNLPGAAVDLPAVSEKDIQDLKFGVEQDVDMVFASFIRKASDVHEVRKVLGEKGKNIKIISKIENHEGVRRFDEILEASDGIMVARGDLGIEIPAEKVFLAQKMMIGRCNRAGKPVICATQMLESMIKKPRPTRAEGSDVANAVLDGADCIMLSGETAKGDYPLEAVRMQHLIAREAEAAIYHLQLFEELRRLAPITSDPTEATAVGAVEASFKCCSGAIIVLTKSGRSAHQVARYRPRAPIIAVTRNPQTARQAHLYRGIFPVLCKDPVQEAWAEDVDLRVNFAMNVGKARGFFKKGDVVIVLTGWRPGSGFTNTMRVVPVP

Emax | EC50 | SMILES
124% | 243 nM | O=c1c2ccc(S(=O)(=O)c3ccccc3)cc2cnn1Cc1cc(F)[nH]n1 [Example 111, 2-((5-fluoro-1H-pyrazol-3-yl)methyl)-6-(phenylsulfonyl)phthalazin-1(2H)-one]
66.4% | 21.3 nM | COc1ccc(S(=O)(=O)c2ccc3c(=O)n(Cc4cc(C(F)(F)F)no4)ncc3c2)cc1 [Example 112, 6-(4-methoxyphenylsulfonyl)-2-((3-(trifluoromethyl)isoxazol-5-yl)methyl)phthalazin-1(2H)-one]
97.1% | 208 nM | Nc1cccc(Cn2ncc3cc(S(=O)(=O)c4cccc5cccnc45)ccc3c2=O)c1 [Example 114, 2-(3-aminobenzyl)-6-(quinolin-8-ylsulfonyl)phthalazin-1(2H)-one]
96.1% | 59.5 nM | COc1cccc(S(=O)(=O)c2ccc3c(=O)n(Cc4ccc(OC)nc4)ncc3c2)c1 [Example 116, 6-(3-methoxyphenylsulfonyl)-2-((6-methoxypyridin-3-yl)methyl)phthalazin-1(2H)-one]
93.2% | 60.2 nM | COc1ccc(Cn2ncc3cc(S(=O)(=O)c4csc(C(N)=O)c4)ccc3c2=O)cn1 [Example 118, 4-(2-((6-methoxypyridin-3-yl)methyl)-1-oxo-1,2-dihydrophthalazin-6-ylsulfonyl)thiophene-2-carboxamide]
103% | 234 nM | N=S(=O)(c1ccccc1)c1ccc2c(=O)n(Cc3cccc(N)c3)ncc2c1 (stereo not drawn) [Example 120, 2-(3-aminobenzyl)-6-(phenylsulfonimidoyl)phthalazin-1(2H)-one]
116% | 620 nM | Nc1cccc(Cn2ncc3cc(S(=O)(=O)c4cccnc4)ccc3c2=O)c1 [Example 121, 2-(3-aminobenzyl)-6-(pyridin-3-ylsulfonyl)phthalazin-1(2H)-one]
88.8% | 458 nM | COc1ccc(Cn2ncc3cc(OC4(c5ccccc5)COC4)ncc3c2=O)cn1 [Example 125, 3-((6-methoxypyridin-3-yl)methyl)-7-((3-phenyloxetan-3-yl)oxy)pyrido[3,4-d]pyridazin-4(3H)-one]
95.3% | 18.9 nM | COc1ccc(Cn2ncc3cc(S(=O)(=O)c4ccc5c(c4)CCO5)ccc3c2=O)cn1 [Example 126, 6-((2,3-dihydrobenzofuran-5-yl)sulfonyl)-2-((6-methoxypyridin-3-yl)methyl)phthalazin-1(2H)-one]
104% | 27.7 nM | Nc1cccc(Cn2ncc3cc(S(=O)(=O)c4ccc5c(c4)CCO5)ccc3c2=O)c1 [Example 143, 2-(3-aminobenzyl)-6-((2,3-dihydrobenzofuran-5-yl)sulfonyl)phthalazin-1(2H)-one]
114% | 144 nM | Nc1cccc(Cn2ncc3cc(S(=O)(=O)c4ccccn4)ccc3c2=O)c1 [Example 144, 2-(3-aminobenzyl)-6-(pyridin-2-ylsulfonyl)phthalazin-1(2H)-one]
106% | 156 nM | Cn1ccc(S(=O)(=O)c2ccc3c(=O)n(Cc4cccc(N)c4)ncc3c2)n1 [Example 145, 2-(3-aminobenzyl)-6-((1-methyl-1H-pyrazol-3-yl)sulfonyl)phthalazin-1(2H)-one]
115% | 75.3 nM | Cc1ccc(S(=O)(=O)c2ccc3c(=O)n(Cc4cccc(N)c4)ncc3c2)s1 [Example 146, 2-(3-aminobenzyl)-6-((5-methylthiophen-2-yl)sulfonyl)phthalazin-1(2H)-one]
98.8% | 94.8 nM | COc1ccc(Cn2ncc3cc(S(=O)(=O)c4ccc(F)cc4)ccc3c2=O)cn1 [Example 147, 6-((4-fluorophenyl)sulfonyl)-2-((6-methoxypyridin-3-yl)methyl)phthalazin-1(2H)-one]
71.3% | 58.4 nM | COc1ccc(Cn2ncc3cc(S(=O)(=O)c4cc(C)ns4)ccc3c2=O)cn1 [Example 148, 2-((6-methoxypyridin-3-yl)methyl)-6-(3-methylisothiazol-5-ylsulfonyl)phthalazin-1(2H)-one]
100% | 54.6 nM | COc1ccc(S(=O)(=O)c2ccc3c(=O)n(Cc4cccc(N)c4)ncc3c2)cn1 [Example 149, 2-(3-aminobenzyl)-6-((6-methoxypyridin-3-yl)sulfonyl)phthalazin-1(2H)-one]
95.2% | 19 nM | Nc1cccc(Cn2ncc3cc(S(=O)(=O)c4ccc5c(c4)OCO5)ccc3c2=O)c1 [Example 152, 2-(3-aminobenzyl)-6-(benzo[d][1,3]dioxol-5-ylsulfonyl)phthalazin-1(2H)-one]
77.2% | 15.7 nM | COc1ccc(Cn2ncc3cc(S(=O)(=O)c4ccc(OC(F)F)cc4)ccc3c2=O)cn1 [Example 153, 6-(4-(difluoromethoxy)phenylsulfonyl)-2-((6-methoxypyridin-3-yl)methyl)phthalazin-1(2H)-one]

Continued, compound first:

SMILES | Emax | EC50
COc1cccc(Cn2ncc3cc(S(=O)(=O)c4ccccc4)ccc3c2=O)c1C(N)=O [Example 92, 2-methoxy-6-((1-oxo-6-(phenylsulfonyl)phthalazin-2(1H)-yl)methyl)benzamide] | 98.9% | 158 nM
NC(=O)c1nc(Cn2ncc3cc(S(=O)(=O)c4ccccc4)ccc3c2=O)cs1 [Example 93, 4-((1-oxo-6-(phenylsulfonyl)phthalazin-2(1H)-yl)methyl)thiazole-2-carboxamide] | 108% | 411 nM
Cc1onc(C(N)=O)c1Cn1ncc2cc(S(=O)(=O)c3ccccc3)ccc2c1=O [Example 94, 5-methyl-4-((1-oxo-6-(phenylsulfonyl)phthalazin-2(1H)-yl)methyl) isoxazole-3-carboxamide] | 71.3% | 588 nM
Cc1cc(Cn2ncc3cc(S(=O)(=O)c4ccccc4)ccc3c2=O)sn1 [Example 97, 2-((3-methylisothiazol-5-yl)methyl)-6-(phenylsulfonyl)phthalazin-1(2H)-one] | 99.1% | 715 nM
COc1ccc(S(=O)(=O)c2ccc3c(=O)n(Cc4ccncc4O)ncc3c2)cc1 [Example 105, 2-((3-hydroxypyridin-4-yl)methyl)-6-(4-methoxyphenylsulfonyl)phthalazin-1(2H)-one] | 103% | 813 nM
COc1ccc(S(=O)(=O)c2ccc3c(=O)n(Cc4cnccc4O)ncc3c2)cc1 [Example 107, 2-((4-hydroxypyridin-3-yl)methyl)-6-(4-methoxyphenylsulfonyl)phthalazin-1(2H)-one] | 103% | 585 nM
COc1ccc(S(=O)(=O)c2ccc3c(=O)n(Cc4ccc(OC)nc4O)ncc3c2)cc1 [Example 109, 2-((2-hydroxy-6-methoxypyridin-3-yl)methyl)-6-(4-methoxyphenylsulfonyl)phthalazin-1(2H)-one] | 96.5% | 141 nM
COc1ccc(Cn2ncc3cc(S(=O)(=O)c4ccc(C)cn4)ccc3c2=O)cn1 [Example 115, 2-((6-methoxypyridin-3-yl)methyl)-6-(5-methylpyridin-2-ylsulfonyl)phthalazin-1(2H)-one] | 69.8% | 276 nM
COc1ccc(Cn2ncc3cc(S(=O)(=O)c4ccsc4C(N)=O)ccc3c2=O)cn1 [Example 117, 3-(2-((6-methoxypyridin-3-yl)methyl)-1-oxo-1,2-dihydrophthalazin-6-ylsulfonyl)thiophene-2-carboxamide] | 77% | 177 nM
Nc1cccc(Cn2ncc3cc([S+]([O-])c4ccccc4)ccc3c2=O)c1 (stereo not drawn) [Example 119, 2-(3-aminobenzyl)-6-(phenylsulfinyl)phthalazin-1(2H)-one] | 98.8% | 348 nM
COc1ccc(Cn2ncc3cc(S(=O)(=O)Nc4ccccc4)ccc3c2=O)cn1 [Example 122, 2-((6-methoxypyridin-3-yl)methyl)-1-oxo-N-phenyl-1,2-dihydrophthalazine-6-sulfonamide] | 60% | 590 nM
COc1ccc(Cn2ncc3cc(S(=O)(=O)c4cccc5[nH]ncc45)ccc3c2=O)cn1 [Example 123, 6-((1H-indazol-4-yl)sulfonyl)-2-((6-methoxypyridin-3-yl)methyl)phthalazin-1(2H)-one] | 74.4% | 123 nM
COc1ccc(Cn2ncc3cc(S(=O)(=O)c4ccc(OC(F)F)nc4)ccc3c2=O)cn1 [Example 124, 6-((6-(difluoromethoxy)pyridin-3-yl)sulfonyl)-2-((6-methoxypyridin-3-yl)methyl)phthalazin-1(2H)-one] | 107% | 31.3 nM
COc1ccc(Cn2ncc3cc(S(=O)(=O)c4cnc5c(c4)OCCO5)ccc3c2=O)cn1 [Example 130, 6-((2,3-dihydro-[1,4]dioxino[2,3-b]pyridin-7-yl)sulfonyl)-2-((6-methoxypyridin-3-yl)methyl)phthalazin-1(2H)-one] | 57.1% | 224 nM
COc1ccc(Cn2ncc3cc(S(=O)(=O)c4cc[nH]n4)ccc3c2=O)cn1 [Example 140, 6-((1H-pyrazol-3-yl)sulfonyl)-2-((6-methoxypyridin-3-yl)methyl)phthalazin-1(2H)-one] | 107% | 192 nM
